# Experimental data taken from patent publication US12139480B2, “5-thiazolecarboxamide kinase inhibitor and uses thereof” (iOmx Therapeutics AG, priority 2018, dated 2024).
# Legend:
# ABL1 wt = target: T1, ABL1 wt (Homo sapiens, UniProt P00519); assay: radiometric protein kinase assay (33PanQinase), IC50; format: biochemical
# T1 construct: includes the ABL1 wild-type protein (amino acids P118-S525) and mutants forms; purchased ProQinase
# T1 sequence (P00519 118-535 limits assumed): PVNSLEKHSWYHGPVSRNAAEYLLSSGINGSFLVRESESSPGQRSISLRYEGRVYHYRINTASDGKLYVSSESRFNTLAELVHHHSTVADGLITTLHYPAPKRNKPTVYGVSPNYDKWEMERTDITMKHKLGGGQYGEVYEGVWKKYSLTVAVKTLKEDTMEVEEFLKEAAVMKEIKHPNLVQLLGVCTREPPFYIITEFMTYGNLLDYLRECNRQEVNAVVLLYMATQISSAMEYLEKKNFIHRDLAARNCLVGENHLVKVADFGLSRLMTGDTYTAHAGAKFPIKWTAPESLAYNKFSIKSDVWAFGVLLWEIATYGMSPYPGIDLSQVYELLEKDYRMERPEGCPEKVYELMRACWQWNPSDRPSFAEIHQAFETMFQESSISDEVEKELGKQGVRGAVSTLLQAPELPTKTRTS
# Protocol: (§1) Incorporation of 33Pi was determined with a microplate scintillation counter (Microbeta, Wallac).
# SRC (GST-HIS-tag) = SRC (GST-HIS-tag) (Homo sapiens, UniProt P12931); assay: as above; format: biochemical
# Sequence of SRC (GST-HIS-tag) (P12931 whole entry): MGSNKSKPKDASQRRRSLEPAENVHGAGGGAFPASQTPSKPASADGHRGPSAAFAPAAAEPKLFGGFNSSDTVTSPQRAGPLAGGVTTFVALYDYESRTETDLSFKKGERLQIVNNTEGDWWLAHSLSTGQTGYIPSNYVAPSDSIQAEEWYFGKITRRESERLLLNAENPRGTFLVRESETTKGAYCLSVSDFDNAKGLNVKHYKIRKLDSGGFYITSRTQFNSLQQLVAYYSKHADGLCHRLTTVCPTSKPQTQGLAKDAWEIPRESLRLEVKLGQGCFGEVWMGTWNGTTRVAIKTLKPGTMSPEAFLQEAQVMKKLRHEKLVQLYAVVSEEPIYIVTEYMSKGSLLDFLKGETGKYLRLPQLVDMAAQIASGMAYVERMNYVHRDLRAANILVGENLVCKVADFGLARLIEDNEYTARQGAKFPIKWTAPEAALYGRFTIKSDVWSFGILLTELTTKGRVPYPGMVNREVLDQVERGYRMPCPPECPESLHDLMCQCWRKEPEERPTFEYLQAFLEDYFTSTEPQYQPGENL
# Protocol: as §1
# SIK3 = target: T2, SIK3 (Homo sapiens, UniProt Q9Y2K2); assay: as above; format: biochemical
# T2 construct: purchased ProQinase
# T2 sequence (Q9Y2K2 whole entry): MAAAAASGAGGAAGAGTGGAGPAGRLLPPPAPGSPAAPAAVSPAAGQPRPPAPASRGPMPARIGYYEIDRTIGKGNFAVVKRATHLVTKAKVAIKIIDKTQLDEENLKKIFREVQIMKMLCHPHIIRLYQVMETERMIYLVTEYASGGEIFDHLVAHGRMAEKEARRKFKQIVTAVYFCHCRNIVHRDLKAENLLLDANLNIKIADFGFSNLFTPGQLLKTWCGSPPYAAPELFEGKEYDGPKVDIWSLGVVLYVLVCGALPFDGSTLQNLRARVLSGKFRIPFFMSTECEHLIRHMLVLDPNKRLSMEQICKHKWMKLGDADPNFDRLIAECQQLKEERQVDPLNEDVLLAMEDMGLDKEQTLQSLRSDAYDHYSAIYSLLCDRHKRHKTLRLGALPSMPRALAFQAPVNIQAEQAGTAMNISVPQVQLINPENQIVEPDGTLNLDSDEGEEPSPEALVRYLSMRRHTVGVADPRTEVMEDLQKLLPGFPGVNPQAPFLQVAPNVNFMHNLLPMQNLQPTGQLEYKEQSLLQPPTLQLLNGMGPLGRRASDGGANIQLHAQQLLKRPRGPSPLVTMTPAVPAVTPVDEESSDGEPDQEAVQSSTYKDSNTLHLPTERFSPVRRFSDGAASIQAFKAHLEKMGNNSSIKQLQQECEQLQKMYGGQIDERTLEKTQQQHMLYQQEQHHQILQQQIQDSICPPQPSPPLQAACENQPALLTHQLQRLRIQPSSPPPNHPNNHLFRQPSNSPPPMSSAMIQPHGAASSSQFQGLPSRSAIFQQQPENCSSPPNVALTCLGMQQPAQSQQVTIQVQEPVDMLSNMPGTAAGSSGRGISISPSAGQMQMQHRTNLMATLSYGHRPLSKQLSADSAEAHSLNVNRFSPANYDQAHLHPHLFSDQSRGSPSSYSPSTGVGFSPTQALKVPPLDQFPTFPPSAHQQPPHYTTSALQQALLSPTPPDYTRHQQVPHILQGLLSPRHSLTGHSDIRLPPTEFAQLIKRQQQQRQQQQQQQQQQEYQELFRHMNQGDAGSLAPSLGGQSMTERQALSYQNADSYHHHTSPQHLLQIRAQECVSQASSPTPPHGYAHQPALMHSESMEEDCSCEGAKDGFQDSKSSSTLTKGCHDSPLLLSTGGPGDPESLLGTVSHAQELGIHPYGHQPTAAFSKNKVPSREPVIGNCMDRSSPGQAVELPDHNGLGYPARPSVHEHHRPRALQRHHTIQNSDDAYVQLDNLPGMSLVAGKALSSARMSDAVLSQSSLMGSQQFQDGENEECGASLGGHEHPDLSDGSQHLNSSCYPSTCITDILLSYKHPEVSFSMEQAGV
# Protocol: as §1
# SIK2 = target: T3, SIK2 (Homo sapiens, UniProt Q9H0K1); assay: as above; format: biochemical
# T3 construct: purchased ProQinase
# T3 sequence (Q9H0K1 whole entry): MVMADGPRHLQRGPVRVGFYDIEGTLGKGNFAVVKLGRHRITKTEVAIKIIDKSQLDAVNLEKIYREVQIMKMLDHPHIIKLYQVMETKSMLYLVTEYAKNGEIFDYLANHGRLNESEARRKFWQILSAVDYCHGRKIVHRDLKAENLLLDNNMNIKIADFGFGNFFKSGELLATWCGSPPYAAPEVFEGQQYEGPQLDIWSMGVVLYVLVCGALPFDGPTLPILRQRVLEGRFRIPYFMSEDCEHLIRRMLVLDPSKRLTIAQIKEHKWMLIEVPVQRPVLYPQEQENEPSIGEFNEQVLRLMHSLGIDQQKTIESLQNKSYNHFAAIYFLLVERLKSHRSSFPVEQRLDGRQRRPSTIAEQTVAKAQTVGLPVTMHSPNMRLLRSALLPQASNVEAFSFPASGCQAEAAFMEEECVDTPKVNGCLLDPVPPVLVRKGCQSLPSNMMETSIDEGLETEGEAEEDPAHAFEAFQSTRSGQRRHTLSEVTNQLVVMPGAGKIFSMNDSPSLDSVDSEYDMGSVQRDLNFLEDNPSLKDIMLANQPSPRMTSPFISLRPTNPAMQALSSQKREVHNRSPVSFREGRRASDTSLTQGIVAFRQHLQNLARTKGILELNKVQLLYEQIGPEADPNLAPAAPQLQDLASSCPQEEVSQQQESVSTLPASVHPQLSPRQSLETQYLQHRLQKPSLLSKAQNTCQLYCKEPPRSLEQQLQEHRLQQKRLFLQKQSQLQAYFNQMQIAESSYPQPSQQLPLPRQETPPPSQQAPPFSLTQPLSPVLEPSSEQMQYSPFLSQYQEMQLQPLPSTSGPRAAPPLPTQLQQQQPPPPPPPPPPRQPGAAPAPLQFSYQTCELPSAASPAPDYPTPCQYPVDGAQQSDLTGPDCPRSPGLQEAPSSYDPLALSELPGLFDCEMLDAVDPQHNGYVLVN
# Protocol: as §1
# SIK1 = target: T4, SIK1 (Homo sapiens, UniProt P57059); assay: as above; format: biochemical
# T4 construct: purchased ProQinase
# T4 sequence (P57059 whole entry): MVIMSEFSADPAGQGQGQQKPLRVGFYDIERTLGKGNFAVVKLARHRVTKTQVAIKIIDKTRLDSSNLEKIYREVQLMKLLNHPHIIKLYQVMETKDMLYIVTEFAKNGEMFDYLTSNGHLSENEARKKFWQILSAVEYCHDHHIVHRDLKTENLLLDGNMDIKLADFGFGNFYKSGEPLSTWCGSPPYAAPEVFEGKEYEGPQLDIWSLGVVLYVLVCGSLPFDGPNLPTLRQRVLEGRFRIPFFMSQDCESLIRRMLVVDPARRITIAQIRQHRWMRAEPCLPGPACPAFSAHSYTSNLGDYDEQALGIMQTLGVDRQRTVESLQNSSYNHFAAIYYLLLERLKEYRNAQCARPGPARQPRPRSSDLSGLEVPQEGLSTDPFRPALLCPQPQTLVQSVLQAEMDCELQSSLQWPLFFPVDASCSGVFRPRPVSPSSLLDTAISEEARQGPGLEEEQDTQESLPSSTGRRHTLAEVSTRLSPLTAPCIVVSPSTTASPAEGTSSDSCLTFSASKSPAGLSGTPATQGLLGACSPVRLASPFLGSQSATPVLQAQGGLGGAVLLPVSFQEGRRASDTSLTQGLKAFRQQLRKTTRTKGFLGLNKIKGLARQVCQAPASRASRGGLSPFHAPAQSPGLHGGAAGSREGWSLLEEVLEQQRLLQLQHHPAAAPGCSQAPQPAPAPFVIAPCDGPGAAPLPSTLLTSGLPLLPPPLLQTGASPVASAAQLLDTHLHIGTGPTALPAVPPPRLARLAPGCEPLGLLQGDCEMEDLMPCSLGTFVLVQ
# Protocol: as §1
# M579-A2-luc tumour cells = assay: sensitisation of tumour cells to in-vitro TNF attack, luciferase-based killing assay; format: cell-based; settings: TNF 10 ng/mL, compound between about 10 and 100 nM
# Protocol: PANC1-luc is an HLA-A2.1+ luciferase-expressing pancreatic adenocarcinoma (PDAC) tumour cell line, and M579-A2-luc is an HLA-A2.1+ luciferase-expressing melanoma tumour cell line.
# After lysis, luciferase assay buffer is added and immediately the luciferase intensity was measured by using the TECAN-Spark microplate reader.
# K562 human CML tumours = settings: dasatinib 8-50 mg/kg PO once a day for 10 days, 5-days-on and 2-days off; imatinib high doses; cited from earlier work
# K562 CML cells = settings: similar study; dasatinib 10 and 30 mg/kg/day; imatinib 200 mg/kg/day; cited from earlier work
# [1] = humans; prescribing information; cited from earlier work
SMILES,inhibitory activity (ABL1 wt),inhibitory activity (SRC (GST-HIS-tag)),inhibitory activity (SIK3),inhibitory activity (SIK2),inhibitory activity (SIK1),cytotoxicity in the presence of TNF compared to inhibitor alone (M579-A2-luc tumour cells),tumour response (K562 human CML tumours),survival / intracranial tumour growth (K562 CML cells),terminal / elimination half-life [1]
"CCOc1cccc(Cl)c1NC(=O)c1cnc(Nc2cc(N3CCN(CCO)CC3)nc(C)n2)s1 [Compound B8, N-(2-chloro-6-ethoxyphenyl)-2-((6-(4-(2-hydroxyethyl)piperazin-1-yl)-2-methylpyrimidin-4-yl)amino)thiazole-5-carboxamide]",potent ABL1 & SRC inhibitor,potent ABL1 & SRC inhibitor,low inhibitory activity,low inhibitory activity,low inhibitory activity,fails to exhibit cytotoxicity,–,–,–
"Cc1nc(Nc2ncc(C(=O)Nc3c(Cl)cccc3Br)s2)cc(N2CCN(CCO)CC2)n1 [Compound B1, N-(2-bromo-6-chlorophenyl)-2-((6-(4-(2-hydroxyethyl)piperazin-1-yl)-2-methylpyrimidin-4-yl)amino)thiazole-5-carboxamide]",pan-SIK and ABL1 & SRC inhibitor,pan-SIK and ABL1 & SRC inhibitor,–,–,–,increased cytotoxicity,–,–,–
Cc1ccc(NC(=O)c2ccc(CN3CCN(C)CC3)cc2)cc1Nc1nccc(-c2cccnc2)n1 [imatinib],–,–,–,–,–,–,failed to produce a comparative response,failed to inhibit intracranial tumour growth,–
Cc1cn(-c2cc(NC(=O)c3ccc(C)c(Nc4nccc(-c5cccnc5)n4)c3)cc(C(F)(F)F)c2)cn1 [nilotinib],–,–,–,–,–,–,–,–,approximately 17 hours
"COc1c(F)cccc1NC(=O)c1cnc(Nc2cc(N3CCN(CCO)CC3)nc(C)n2)s1 [Compound B4, N-(3-fluoro-2-methoxyphenyl)-2-((6-(4-(2-hydroxyethyl)piperazin-1-yl)-2-methylpyrimidin-4-yl)amino)thiazole-5-carboxamide]",potent inhibitor,potent inhibitor,weak inhibitor,strong inhibitor,strong inhibitor,fails to exhibit cytotoxicity,–,–,–
